One data set deals with MDA-MB-231 cells. Put plainly: MTT antiproliferative assay, MDA-MB-231. The conditions noted are these: read-out: Cytotoxicity IC50, MDA-MB-231, 72 h. The class given is cell-based, human. (In general: Tetrazolium dyes change colour on reduction, which living cells bring about.)
In a further data set the test system is MCF-7 cells. Kind of data set: MTT antiproliferative assay, MCF-7. Type of data set: cell-based, human. The conditions noted are these: read-out: Cytotoxicity IC50, MCF-7, 72 h.
The test system of another data set is 4T1 cells. Kind of data set: MTT antiproliferative assay, 4T1. The class given is cell-based, mouse. Conditions: read-out: Cytotoxicity IC50, 4T1, 72 h.
A further data set concerns MCF-10A cells. Kind of data set: MTT antiproliferative assay, MCF-10A. Type of data set: cell-based, human. Conditions: read-out: Cytotoxicity IC50, 72 h.
A further data set deals with HeLa cells. Kind of data set: MTT antiproliferative assay, HeLa. Type of data set: cell-based. Conditions: read-out: Cytotoxicity IC50, 72 h.
Another data set relates to p-STING. Kind of data set: Immunohistochemistry of primary tumor tissue. Type of data set: in vivo, mouse. The conditions noted are these: 5 mg kg^−1 intratumoral, IHC.

The source of these data is paper PMC12670118 (Chemical Science, 2025).

For orientation: IC50 means the concentration needed to halve the response being measured.

In the case of `N.N.[Cl][Pt][Cl]` [Cisplatin], the IC50 in the data set on MDA-MB-231 cells stood at 20.2 ± 5.6 µM; in the data set on MCF-7 cells it was 18.3 ± 5.74 µM; with 4T1 cells, 25.5 ± 2.52 µM; with MCF-10A cells it was 15.5 ± 4.33 µM; with HeLa cells, 8.35 ± 0.86 µM. The “Expression of p-STING on primary tumors” value with p-STING was “can't activate the STING pathway in vivo”.
